Results: ChEMBL document CHEMBL5291721, “A preclinical secondary pharmacology resource illuminates target-adverse drug reaction associations of marketed drugs” (Nat Commun, 2023)

Assays:
[1] = target: T1, Oxysterols receptor LXR-beta (Homo sapiens, UniProt P55055); type: functional
T1 sequence (P55055 whole entry): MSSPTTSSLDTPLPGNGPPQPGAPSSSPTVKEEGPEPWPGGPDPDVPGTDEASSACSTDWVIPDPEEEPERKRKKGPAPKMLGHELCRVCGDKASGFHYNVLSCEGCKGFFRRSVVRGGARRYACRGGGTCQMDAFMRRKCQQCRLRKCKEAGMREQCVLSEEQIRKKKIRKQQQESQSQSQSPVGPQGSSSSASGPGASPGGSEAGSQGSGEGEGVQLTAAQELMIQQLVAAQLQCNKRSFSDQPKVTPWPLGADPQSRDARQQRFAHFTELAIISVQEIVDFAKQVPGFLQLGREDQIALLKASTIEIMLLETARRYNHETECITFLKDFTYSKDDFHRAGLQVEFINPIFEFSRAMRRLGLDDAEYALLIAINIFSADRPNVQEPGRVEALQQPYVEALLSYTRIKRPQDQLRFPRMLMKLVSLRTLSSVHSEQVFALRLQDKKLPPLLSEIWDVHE

Bile acid receptor [2] = target: T2, Bile acid receptor (Homo sapiens, UniProt Q96RI1); type: functional
T2 sequence (Q96RI1 whole entry): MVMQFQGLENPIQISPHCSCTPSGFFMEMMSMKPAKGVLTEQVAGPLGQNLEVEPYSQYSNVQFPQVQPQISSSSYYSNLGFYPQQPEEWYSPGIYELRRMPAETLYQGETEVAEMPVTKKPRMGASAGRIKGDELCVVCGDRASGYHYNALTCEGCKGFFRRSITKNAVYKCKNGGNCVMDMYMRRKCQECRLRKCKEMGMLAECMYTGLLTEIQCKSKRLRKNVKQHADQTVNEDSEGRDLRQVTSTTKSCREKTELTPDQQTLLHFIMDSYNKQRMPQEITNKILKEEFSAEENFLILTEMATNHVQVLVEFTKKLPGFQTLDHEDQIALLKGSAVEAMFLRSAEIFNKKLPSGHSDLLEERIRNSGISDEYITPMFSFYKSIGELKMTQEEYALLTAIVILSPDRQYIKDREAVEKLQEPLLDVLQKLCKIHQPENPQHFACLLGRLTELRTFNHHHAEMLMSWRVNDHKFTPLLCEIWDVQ

Bile acid receptor [3] = target: T2, Bile acid receptor; type: functional; remark: listed apart in the source
Bile acid receptor [4] = target: T2, Bile acid receptor; type: functional; remark: listed apart in the source
Bile acid receptor [5] = target: T2, Bile acid receptor; type: functional; remark: listed apart in the source
[6] = target: T3, Alpha-2A adrenergic receptor (Homo sapiens, UniProt P08913)
T3 sequence (P08913 whole entry): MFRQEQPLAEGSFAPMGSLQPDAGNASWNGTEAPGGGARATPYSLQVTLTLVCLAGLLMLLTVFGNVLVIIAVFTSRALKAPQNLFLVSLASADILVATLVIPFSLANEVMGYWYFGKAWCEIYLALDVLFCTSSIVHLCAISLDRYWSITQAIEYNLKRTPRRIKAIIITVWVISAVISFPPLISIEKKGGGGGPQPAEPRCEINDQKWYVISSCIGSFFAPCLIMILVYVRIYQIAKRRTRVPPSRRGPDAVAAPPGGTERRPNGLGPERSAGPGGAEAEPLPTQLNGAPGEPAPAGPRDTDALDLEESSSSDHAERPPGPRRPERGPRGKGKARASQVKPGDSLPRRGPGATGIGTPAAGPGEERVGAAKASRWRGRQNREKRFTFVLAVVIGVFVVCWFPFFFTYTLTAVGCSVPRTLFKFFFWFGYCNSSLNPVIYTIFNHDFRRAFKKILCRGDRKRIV

[7] = target: T4, 5-hydroxytryptamine receptor 1A (Homo sapiens, UniProt P08908)
T4 sequence (P08908 whole entry): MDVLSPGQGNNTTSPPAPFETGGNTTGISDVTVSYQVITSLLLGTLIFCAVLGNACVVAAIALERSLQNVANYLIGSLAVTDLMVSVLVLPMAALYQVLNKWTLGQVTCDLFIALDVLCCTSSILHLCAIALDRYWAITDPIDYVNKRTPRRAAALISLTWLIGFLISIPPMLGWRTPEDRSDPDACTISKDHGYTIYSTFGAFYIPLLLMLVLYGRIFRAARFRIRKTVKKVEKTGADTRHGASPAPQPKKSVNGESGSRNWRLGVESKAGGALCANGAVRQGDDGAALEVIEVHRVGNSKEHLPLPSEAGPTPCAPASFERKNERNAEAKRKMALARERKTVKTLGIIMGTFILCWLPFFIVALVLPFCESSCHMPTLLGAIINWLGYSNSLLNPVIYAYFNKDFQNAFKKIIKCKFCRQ

[8] = target: T5, Muscarinic acetylcholine receptor M2 (Homo sapiens, UniProt P08172)
T5 sequence (P08172 whole entry): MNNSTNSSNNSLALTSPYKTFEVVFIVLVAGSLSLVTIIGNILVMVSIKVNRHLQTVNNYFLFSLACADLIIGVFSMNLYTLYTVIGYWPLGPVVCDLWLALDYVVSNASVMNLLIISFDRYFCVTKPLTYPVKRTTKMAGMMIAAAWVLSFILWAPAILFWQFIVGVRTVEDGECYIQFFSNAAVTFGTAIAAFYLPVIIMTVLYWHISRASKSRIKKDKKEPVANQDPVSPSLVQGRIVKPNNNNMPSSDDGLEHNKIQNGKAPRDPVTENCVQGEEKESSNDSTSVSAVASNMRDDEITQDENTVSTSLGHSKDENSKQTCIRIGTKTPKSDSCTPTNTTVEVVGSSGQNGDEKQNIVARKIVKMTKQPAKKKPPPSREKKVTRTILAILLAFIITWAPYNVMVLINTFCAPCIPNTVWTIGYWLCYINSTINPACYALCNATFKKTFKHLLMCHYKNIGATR

D(1A) dopamine receptor = D(1A) dopamine receptor (Homo sapiens, UniProt P21728)
[9] = target: 5-hydroxytryptamine receptor 2B (Homo sapiens, UniProt P41595)
[10] = target: 5-hydroxytryptamine receptor 2A (Homo sapiens, UniProt P28223)
Further: assay procedure not described here.

5-hydroxytryptamine receptor 2B, sequence (P41595 whole entry): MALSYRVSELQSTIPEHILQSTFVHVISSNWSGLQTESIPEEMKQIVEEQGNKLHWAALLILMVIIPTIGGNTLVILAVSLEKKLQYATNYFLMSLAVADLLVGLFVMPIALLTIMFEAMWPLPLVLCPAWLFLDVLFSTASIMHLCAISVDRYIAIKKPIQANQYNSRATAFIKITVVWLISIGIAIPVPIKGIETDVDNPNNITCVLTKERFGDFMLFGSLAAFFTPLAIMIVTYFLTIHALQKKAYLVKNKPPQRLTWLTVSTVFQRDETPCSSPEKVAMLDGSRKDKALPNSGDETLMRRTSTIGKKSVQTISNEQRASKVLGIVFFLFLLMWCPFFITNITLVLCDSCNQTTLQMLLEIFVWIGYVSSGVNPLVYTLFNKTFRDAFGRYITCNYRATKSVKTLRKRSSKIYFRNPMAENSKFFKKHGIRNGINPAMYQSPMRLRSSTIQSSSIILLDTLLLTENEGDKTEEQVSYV
D(1A) dopamine receptor, sequence (P21728 whole entry): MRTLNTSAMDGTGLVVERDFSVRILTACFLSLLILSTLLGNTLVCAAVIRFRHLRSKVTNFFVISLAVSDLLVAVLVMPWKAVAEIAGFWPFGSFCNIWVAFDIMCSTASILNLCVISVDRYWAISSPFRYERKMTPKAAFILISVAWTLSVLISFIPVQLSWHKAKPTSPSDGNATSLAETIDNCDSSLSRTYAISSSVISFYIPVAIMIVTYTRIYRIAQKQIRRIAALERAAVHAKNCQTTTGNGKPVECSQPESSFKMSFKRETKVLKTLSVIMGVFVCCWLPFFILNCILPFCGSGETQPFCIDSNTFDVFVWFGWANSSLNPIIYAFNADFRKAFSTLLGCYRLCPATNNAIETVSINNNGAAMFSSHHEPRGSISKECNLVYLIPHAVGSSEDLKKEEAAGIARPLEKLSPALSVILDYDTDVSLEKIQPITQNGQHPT
5-hydroxytryptamine receptor 2A, sequence (P28223 whole entry): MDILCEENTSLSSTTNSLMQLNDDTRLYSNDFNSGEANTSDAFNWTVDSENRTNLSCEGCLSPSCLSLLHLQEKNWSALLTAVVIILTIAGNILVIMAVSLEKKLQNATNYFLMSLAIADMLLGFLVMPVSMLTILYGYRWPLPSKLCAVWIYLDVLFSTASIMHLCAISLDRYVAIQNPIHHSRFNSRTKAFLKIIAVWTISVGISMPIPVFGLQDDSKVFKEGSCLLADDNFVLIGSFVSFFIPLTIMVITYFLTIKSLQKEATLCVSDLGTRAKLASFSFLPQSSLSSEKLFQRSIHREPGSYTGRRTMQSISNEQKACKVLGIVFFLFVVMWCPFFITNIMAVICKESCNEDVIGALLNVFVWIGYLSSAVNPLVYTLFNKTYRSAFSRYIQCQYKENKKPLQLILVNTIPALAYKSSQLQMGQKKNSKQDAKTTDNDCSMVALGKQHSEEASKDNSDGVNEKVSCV

**Q.** CC(C(=O)O)c1ccc2c(c1)[nH]c1ccc(Cl)cc12 (configuration not stated) [CARPROFEN] was tested. Which AC50 [1] did it give?
**A.** The AC50 was over 30 µM.

**Q.** And the AC50 (Bile acid receptor [2])?
**A.** Its AC50 is over 30 µM.

**Q.** And the AC50 (Bile acid receptor [3])?
**A.** The AC50 was over 30 µM.

**Q.** What about the AC50 (Bile acid receptor [4]) of the same compound?
**A.** The AC50 was over 10 µM.

**Q.** What about the AC50 (Bile acid receptor [5]) of the same compound?
**A.** The AC50 was over 30 µM.

**Q.** With COc1cc2nc(N3CCN(C(=O)C4CCCO4)CC3)nc(N)c2cc1OC (configuration not stated) [TERAZOSIN] as the compound, how does the AC50 [6] read?
**A.** Its AC50 is 29 µM.

**Q.** Which results are given for COc1cc2nccc(Oc3ccc(NC(=O)C4(C(=O)Nc5ccc(F)cc5)CC4)cc3)c2cc1OC [CABOZANTINIB]?
**A.** AC50 [7]: > 30 µM; AC50 [8]: > 30 µM; AC50 [6]: > 30 µM; AC50 (D(1A) dopamine receptor): > 30 µM

**Q.** Which AC50 [9] does the source give for C=C[C@H]1C[N@@]2CC[C@H]1C[C@@H]2[C@@H](O)c1ccnc2ccc(OC)cc12 [QUINIDINE] here?
**A.** The AC50 was 0.976 µM.

**Q.** CN(C)CCc1c[nH]c2ccc(Cn3cncn3)cc12 [RIZATRIPTAN] was tested. Which AC50 [10] did it give?
**A.** The AC50 was over 10 µM.
